Paper PMC6321168, “Comparative Study on Excretive Characterization of Main Components in Herb Pair Notoginseng-Safflower and Single Herbs by LC–MS/MS” (Pharmaceutics, 2018)

Experiment: Urinary excretion study in rats after oral NS, SF or CNS (LC–MS/MS)
Type: in vivo
Settings: for concentration at 2 h / concentration at 4 h / concentration at 8 h / concentration at 12 h / concentration at 24 h / concentration at 36 h / concentration at 48 h / concentration at 72 h / concentration at 96 h / concentration at 120 h / concentration at 6 h: male, Sprague Dawley, rat, urine, oral; for Accumulative excretion amount / Accumulative excretion percentage / Excretion amount: rat urine
Description: The animal room was set at constant temperature of 20 ± 2 °C with humidity of 50 ± 20% and 12/12 h light/dark cycle.
Eighteen male rats were fasted for 12 h before starting the experiment. The rats were divided into three groups at random (n = 6) and received NS (60 mg/kg), SF (50 mg/kg), and NS (60 mg/kg) + SF (50 mg/kg), respectively, by oral gavage. The rats were placed in separate metabolic cages. The urine samples were collected at 0–2, 2–4, 4–6, 6–8, 8–12, 12–24, 24–36, 36–48, 48–72, 72–96, and 96–120 h. The feces samples were collected at 0–4, 4–8, 8–12, 12–24, 24–36, 36–48, 48–72, 72–96, and 96–120 h. The urine volume was recorded and the dry feces were measured for each collection period. Samples were stored at −80 °C until analysis.
An aliquot of 200 μL urine sample was mixed with 10 μL of IS and evaporated to dryness with a ZLS-2 vacuum centrifugal concentrator (Herexi Co., Ltd., Changsha, Hunan, China). The residue was reconstituted in 100 μL of 50% methanol vortexed for 2 min and centrifuged at 12,000 rpm for 15 min. Finally, a 1 μL aliquot was injected for LC–MS analysis.
Ultra fast liquid chromatography (UFLC) analysis was performed using a Shimadzu UFLC system (DGU-20A3R Degasser; LC-20AD pump; SIL-20AXR Autosampler; CTO-20AC Column Oven) (Nakagyo-Ku, Koyoto, Japan). […] Because of the different endogenous substances in the urine and feces samples, different elution gradients were used to alleviate the matrix effects for the analytes.
The mass spectrometric detection was performed on an ABSciex 4500 Qtrap mass spectrometer (ABSciex, Foster City, CA, USA) equipped with a negative electrospray ionization (ESI) interface using multiple reaction monitoring (MRM). The MS parameters were optimized under the selected ion monitoring conditions as follows: curtain gas, 35 psi; ionspray voltage, 4500 V; turbo gas temperature, 450 °C; GS1, 45 psi; GS2, 45 psi. All data were acquired and analyzed by Analyst software (Versions 1.6.2) from ABSciex.
The accumulative excretion percentage was calculated for each analyte as follows. Excretion at time (t) = [concentration of the analyte (ng/mL) at t] × total urine (or feces) volume (mL) at t. The cumulative excretion up to time t (mg) was expressed as a percent (%) cumulative excretion by dividing by the total amount of the analyte ingested (mg): % Cumulative Excretion = 100 × (Σt excretiont) total ingested.

In the case of `CC(C)=CCC[C@](C)(O[C@@H]1O[C@H](CO[C@@H]2O[C@H](CO)[C@@H](O)[C@H](O)[C@H]2O)[C@@H](O)[C@H](O)[C@H]1O)[C@H]1CC[C@]2(C)[C@@H]1[C@H](O)C[C@@H]1[C@@]3(C)CC[C@H](O[C@@H]4O[C@H](CO)[C@@H](O)[C@H](O)[C@H]4O[C@@H]4O[C@H](CO)[C@@H](O)[C@H](O)[C@H]4O)C(C)(C)[C@@H]3CC[C@]12C` [ginsenoside Rb1], the concentration at 2 h (60 mg/kg, oral NS 60 mg/kg, 2 h) is reported as 115 ± 284 ng/mL, the concentration at 4 h (60 mg/kg, oral NS 60 mg/kg, 4 h) is reported as 245 ± 450 ng/mL and the concentration at 8 h (60 mg/kg, oral NS 60 mg/kg, 8 h) is reported as 140 ± 196 ng/mL. It also gave a concentration at 12 h (60 mg/kg, oral NS 60 mg/kg, 12 h) of 214 ± 344 ng/mL, a concentration at 24 h (60 mg/kg, oral NS 60 mg/kg, 24 h) of 240 ± 553 ng/mL and a concentration at 36 h (60 mg/kg, oral NS 60 mg/kg, 36 h) of 61 ± 54 ng/mL. For the same compound, the concentration at 48 h (60 mg/kg, oral NS 60 mg/kg, 48 h) was 142 ± 344 ng/mL, the concentration at 72 h (60 mg/kg, oral NS 60 mg/kg, 72 h) was 84 ± 195 ng/mL and the concentration at 96 h (60 mg/kg, oral NS 60 mg/kg, 96 h) was 45 ± 104 ng/mL. For the same compound, the concentration at 120 h (60 mg/kg, oral NS 60 mg/kg, 120 h) was 25 ± 62 ng/mL, the concentration at 2 h (oral CNS 110 mg/kg, 2 h) was 54 ± 73 ng/mL and the concentration at 4 h (oral CNS 110 mg/kg, 4 h) was 27 ± 41 ng/mL. It also gave a concentration at 6 h (oral CNS 110 mg/kg, 6 h) of 111 ± 121 ng/mL, a concentration at 8 h (oral CNS 110 mg/kg, 8 h) of 105 ± 100 ng/mL and a concentration at 12 h (oral CNS 110 mg/kg, 12 h) of 120 ± 134 ng/mL. It also gave a concentration at 24 h (oral CNS 110 mg/kg, 24 h) of 72 ± 50 ng/mL, a concentration at 36 h (oral CNS 110 mg/kg, 36 h) of 138 ± 144 ng/mL and a concentration at 48 h (oral CNS 110 mg/kg, 48 h) of 51 ± 60 ng/mL. For the same compound, the concentration at 72 h (oral CNS 110 mg/kg, 72 h) was 33 ± 28 ng/mL, the concentration at 96 h (oral CNS 110 mg/kg, 96 h) was 19 ± 14 ng/mL and the concentration at 120 h (oral CNS 110 mg/kg, 120 h) was 14 ± 12 ng/mL. It also gave a concentration at 6 h (oral NS 60 mg/kg, 6 h) of 140 ± 244 ng/mL, an Accumulative excretion amount (oral CNS 110 mg/kg, 2 h) of 0.075 ± 0.093 µg and an Accumulative excretion percentage (oral CNS 110 mg/kg, 2 h) of 0.002±0.002%. It also gave an Excretion amount (oral CNS 110 mg/kg, 2 h) of 0.075 ± 0.093 µg, an Accumulative excretion amount (oral CNS 110 mg/kg, 4 h) of 0.106 ± 0.086 µg and an Accumulative excretion percentage (oral CNS 110 mg/kg, 4 h) of 0.003±0.002%. For the same compound, the Excretion amount (oral CNS 110 mg/kg, 4 h) was 0.044 ± 0.050 µg, the Accumulative excretion amount (oral CNS 110 mg/kg, 6 h) was 0.218 ± 0.166 µg and the Accumulative excretion percentage (oral CNS 110 mg/kg, 6 h) was 0.006±0.004%. It also gave an Excretion amount (oral CNS 110 mg/kg, 6 h) of 0.158 ± 0.142 µg, an Accumulative excretion amount (oral CNS 110 mg/kg, 8 h) of 0.339 ± 0.213 µg and an Accumulative excretion percentage (oral CNS 110 mg/kg, 8 h) of 0.009±0.006%. For the same compound, the Excretion amount (oral CNS 110 mg/kg, 8 h) was 0.212 ± 0.169 µg, the Accumulative excretion amount (oral CNS 110 mg/kg, 12 h) was 0.472 ± 0.310 µg and the Accumulative excretion percentage (oral CNS 110 mg/kg, 12 h) was 0.013±0.008%. It also gave an Excretion amount (oral CNS 110 mg/kg, 12 h) of 0.154 ± 0.128 µg, an Accumulative excretion amount (oral CNS 110 mg/kg, 24 h) of 0.859 ± 0.527 µg and an Accumulative excretion percentage (oral CNS 110 mg/kg, 24 h) of 0.023±0.014%. The Excretion amount (oral CNS 110 mg/kg, 24 h) was 0.388 ± 0.391 µg, the Accumulative excretion amount (oral CNS 110 mg/kg, 36 h) was 1.056 ± 0.587 µg and the Accumulative excretion percentage (oral CNS 110 mg/kg, 36 h) was 0.028±0.016%. For the same compound, the Excretion amount (oral CNS 110 mg/kg, 36 h) was 0.197 ± 0.129 µg, the Accumulative excretion amount (oral CNS 110 mg/kg, 48 h) was 1.303 ± 0.684 µg and the Accumulative excretion percentage (oral CNS 110 mg/kg, 48 h) was 0.035±0.018%. It also gave an Excretion amount (oral CNS 110 mg/kg, 48 h) of 0.247 ± 0.216 µg, an Accumulative excretion amount (oral CNS 110 mg/kg, 72 h) of 1.373 ± 0.705 µg and an Accumulative excretion percentage (oral CNS 110 mg/kg, 72 h) of 0.037±0.019%. It also gave an Excretion amount (oral CNS 110 mg/kg, 72 h) of 0.070 ± 0.060 µg, an Accumulative excretion amount (oral CNS 110 mg/kg, 96 h) of 1.414 ± 0.715 µg and an Accumulative excretion percentage (oral CNS 110 mg/kg, 96 h) of 0.038±0.019%. The Excretion amount (oral CNS 110 mg/kg, 96 h) was 0.040 ± 0.031 µg, the Accumulative excretion amount (oral CNS 110 mg/kg, 120 h) was 1.436 ± 0.726 µg and the Accumulative excretion percentage (oral CNS 110 mg/kg, 120 h) was 0.038±0.019%. For the same compound, the Excretion amount (oral CNS 110 mg/kg, 120 h) was 0.022 ± 0.025 µg, the Accumulative excretion amount (oral NS 60 mg/kg, 2 h) was 0.075 ± 0.063 µg and the Accumulative excretion percentage (oral NS 60 mg/kg, 2 h) was 0.002±0.001%. The Excretion amount (oral NS 60 mg/kg, 2 h) was 0.075 ± 0.063 µg, the Accumulative excretion amount (oral NS 60 mg/kg, 4 h) was 0.574 ± 1.167 µg and the Accumulative excretion percentage (oral NS 60 mg/kg, 4 h) was 0.013±0.027%. For the same compound, the Excretion amount (oral NS 60 mg/kg, 4 h) was 0.872 ± 1.518 µg, the Accumulative excretion amount (oral NS 60 mg/kg, 6 h) was 0.798 ± 1.077 µg and the Accumulative excretion percentage (oral NS 60 mg/kg, 6 h) was 0.019±0.025%. For the same compound, the Excretion amount (oral NS 60 mg/kg, 6 h) was 0.262 ± 0.207 µg, the Accumulative excretion amount (oral NS 60 mg/kg, 8 h) was 0.863 ± 1.044 µg and the Accumulative excretion percentage (oral NS 60 mg/kg, 8 h) was 0.021±0.025%. For the same compound, the Excretion amount (oral NS 60 mg/kg, 8 h) was 0.152 ± 0.084 µg, the Accumulative excretion amount (oral NS 60 mg/kg, 12 h) was 1.139 ± 1.140 µg and the Accumulative excretion percentage (oral NS 60 mg/kg, 12 h) was 0.027±0.027%. For the same compound, the Excretion amount (oral NS 60 mg/kg, 12 h) was 0.276 ± 0.142 µg, the Accumulative excretion amount (oral NS 60 mg/kg, 24 h) was 1.881 ± 1.352 µg and the Accumulative excretion percentage (oral NS 60 mg/kg, 24 h) was 0.044±0.032%. For the same compound, the Excretion amount (oral NS 60 mg/kg, 24 h) was 0.742 ± 0.289 µg, the Accumulative excretion amount (oral NS 60 mg/kg, 36 h) was 2.275 ± 1.435 µg and the Accumulative excretion percentage (oral NS 60 mg/kg, 36 h) was 0.053±0.033%. For the same compound, the Excretion amount (oral NS 60 mg/kg, 36 h) was 0.394 ± 0.221 µg, the Accumulative excretion amount (oral NS 60 mg/kg, 48 h) was 2.476 ± 1.415 µg and the Accumulative excretion percentage (oral NS 60 mg/kg, 48 h) was 0.058±0.033%. It also gave an Excretion amount (oral NS 60 mg/kg, 48 h) of 0.201 ± 0.117 µg, an Accumulative excretion amount (oral NS 60 mg/kg, 72 h) of 2.506 ± 1.429 µg and an Accumulative excretion percentage (oral NS 60 mg/kg, 72 h) of 0.058±0.033%. It also gave an Excretion amount (oral NS 60 mg/kg, 72 h) of 0.030 ± 0.020 µg, an Accumulative excretion amount (oral NS 60 mg/kg, 96 h) of 2.521 ± 1.438 µg and an Accumulative excretion percentage (oral NS 60 mg/kg, 96 h) of 0.060±0.034%. The Excretion amount (oral NS 60 mg/kg, 96 h) was 0.016 ± 0.011 µg, the Accumulative excretion amount (oral NS 60 mg/kg, 120 h) was 2.528 ± 1.439 µg and the Accumulative excretion percentage (oral NS 60 mg/kg, 120 h) was 0.060±0.034%. For the same compound, the Excretion amount (oral NS 60 mg/kg, 120 h) was 0.006 ± 0.003 µg.
